Experiment: HPLC assay and impurity levels, autoclaved and non-autoclaved samples (Example 7)
Type: physicochemical
Settings: standard, no condition given
Method: EXAMPLE 7. Characterization of Unbuffered Formulation C Solutions with Nitrogen […] and with the Inclusion of an Antioxidant with or without a Chelating Agent. Development studies were conducted using Formulation C, Example C, and its corresponding placebo formulation. The table below details the composition of Formulation C active formulation and corresponding placebo. The solutions above were prepared by first dissolving the stabilizers in the vehicle (60 mM Tartaric acid) which was pre-prepared in nitrogen sparged water. Once dissolved, the CEM-101 API was then added slowly and allowed to mix until a complete solution was achieved. Formulations prepared were then filled into vials, crimped with an aluminium cap containing a PTFE septum and then autoclaved. Each vial was nitrogen purged prior to crimping. HPLC analyses were performed on both autoclaved and non-autoclaved samples. Refer to results in the table below for summary data on assay and impurities.

## CC[C@H]1OC(=O)[C@@](C)(F)C(=O)[C@H](C)[C@@H](O[C@@H]2O[C@H](C)C[C@H](N(C)C)[C@H]2O)[C@@](C)(OC)C[C@@H](C)C(=O)[C@H](C)[C@H]2N(CCCCn3cc(-c4cccc(N)c4)nn3)C(=O)O[C@]12C [STD 0.5 mg/mL]
  Total Impurities: 1.867
